The source of these data is ChEMBL document CHEMBL5338769, “Discovery of Norisoboldine Analogue III11 as a Novel and Potent Aryl Hydrocarbon Receptor Agonist for the Treatment of Ulcerative Colitis” (J Med Chem, 2023).

For experiment [1], the system named is Mus musculus. The experiment in a line: In vivo activation of AhR in C57BL/6 mouse assessed as increase in CYP1A1 mRNA expression at 100 mg/kg, po administered once a day for 10 days by qRT-PCR analysis. Conditions: time 10.0 day. It counts as functional, organism-based. For orientation: Real-time PCR tracks product formation cycle by cycle.
Experiment [2] relates to Mus musculus. Description: Anti-colitis activity in DSS-induced ulcerative colitis C57BL/6 mouse model assessed as CD4+CD25+Foxp3+ Treg cell percentage in mesenteric lymph nodes at 100 mg/kg, po administered once a day for 10 days by flow cytometric analysis (reference value: 4.5 %). It counts as functional. To be noted: time 10 day.
The test system of experiment [3] is Mus musculus. The experiment in a line: Anti-colitis activity in DSS-induced ulcerative colitis C57BL/6 mouse model assessed as CD4+CD25+Foxp3+ Treg cell percentage in spleen at 100 mg/kg, po administered once a day for 10 days by flow cytometric analysis (reference value: 3.3%). It counts as functional. Conditions: time 10 day. (Flow cytometry measures light scatter and fluorescence of single cells or particles in a stream.)

The target in experiment [4] is T1, Aryl hydrocarbon receptor (Mus musculus, UniProt P30561).
T1 sequence (P30561 whole entry): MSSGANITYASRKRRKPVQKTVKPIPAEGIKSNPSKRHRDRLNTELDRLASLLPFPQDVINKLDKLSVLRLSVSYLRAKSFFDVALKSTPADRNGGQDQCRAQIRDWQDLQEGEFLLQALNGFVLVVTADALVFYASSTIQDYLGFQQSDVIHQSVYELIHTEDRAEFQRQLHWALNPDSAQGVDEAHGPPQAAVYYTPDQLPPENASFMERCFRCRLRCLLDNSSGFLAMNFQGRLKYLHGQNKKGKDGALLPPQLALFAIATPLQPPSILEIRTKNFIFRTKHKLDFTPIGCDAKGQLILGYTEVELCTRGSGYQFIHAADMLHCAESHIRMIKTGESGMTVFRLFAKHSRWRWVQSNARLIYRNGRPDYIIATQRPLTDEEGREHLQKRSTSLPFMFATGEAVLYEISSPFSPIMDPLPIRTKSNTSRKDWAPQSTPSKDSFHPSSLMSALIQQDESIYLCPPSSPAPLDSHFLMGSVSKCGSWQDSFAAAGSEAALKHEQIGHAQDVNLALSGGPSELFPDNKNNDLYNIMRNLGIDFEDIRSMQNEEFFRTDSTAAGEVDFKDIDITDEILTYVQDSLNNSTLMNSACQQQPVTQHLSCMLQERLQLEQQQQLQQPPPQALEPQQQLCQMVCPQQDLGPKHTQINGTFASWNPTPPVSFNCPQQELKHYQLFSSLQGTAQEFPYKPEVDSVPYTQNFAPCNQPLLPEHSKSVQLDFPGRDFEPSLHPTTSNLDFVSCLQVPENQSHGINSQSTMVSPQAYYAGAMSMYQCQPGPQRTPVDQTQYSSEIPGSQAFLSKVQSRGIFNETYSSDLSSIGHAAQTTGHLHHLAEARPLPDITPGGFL
Description: Activation of AhR transcription in C57BL/6 mouse naive T cells assessed as increase in CYP1A1 mRNA expression by measuring fold change at 3 uM by qRT-PCR analysis relative to control. Conditions: T-cell, read-out: FC. It is filed as cell-based.

The nature of experiment [5]: Induction of cell differentiation in C57BL/6 mouse naive regulatory T cells assessed as increase in cell frequency at 3 uM incubated for 72 hrs by flow cytometric analysis (reference value: 24.9%). It counts as functional.
Experiment [6] in a line: Induction of cell differentiation in C57BL/6 mouse naive regulatory T cells assessed as increase in […] mRNA level by measuring fold change at 3 uM incubated for 72 hrs by qRT-PCR analysis. It is filed as functional.
Experiment [7] is described as follows: Induction of cell differentiation in C57BL/6 mouse naive regulatory T cells assessed as increase in IL-10 mRNA level by measuring fold change at 3 uM incubated for 72 hrs by qRT-PCR analysis. It counts as functional.
The subject of experiment [8] is Mus musculus. The experiment in a line: Anti-colitis activity against DSS-induced ulcerative colitis C57BL/6 mouse model assessed as decrease in colon MPO activity at 40 mg/kg, po administered once a day for 10 days. It is filed as functional, organism-based. Conditions: time 10.0 day.
For experiment [9], the system named is Mus musculus. Description: In vivo activation of AhR in C57BL/6 mouse assessed as increase in CYP1A1 mRNA expression at 40 mg/kg, po administered once a day for 10 days by qRT-PCR analysis. Conditions: time 10.0 day. It counts as functional, organism-based.
In experiment [10] the test system is Mus musculus. The experiment in a line: Anti-colitis activity in DSS-induced ulcerative colitis C57BL/6 mouse model assessed as increase in CD4+CD25+Foxp3+ Treg cell ratio in mesenteric lymph nodes at 40 mg/kg, po administered once a day for 10 days by flow cytometric analysis (reference value: 4.5 %). It is filed as functional. Conditions: time 10 day.
Experiment [11] concerns Mus musculus. Description: Anti-colitis activity in DSS-induced ulcerative colitis C57BL/6 mouse model assessed as CD4+CD25+Foxp3+ Treg cell percentage in spleen at 40 mg/kg, po administered once a day for 10 days by flow cytometric analysis (reference value: 3.3%). It counts as functional. To be noted: time 10 day.

Active and inactive are the calls of the source. The calls are words filed in the database; no cut-off is given here.

With `Nc1ccc(O)c(C(=O)O)c1` [MESALAMINE], the outcome in [1] was Active. Further, the figures for the Activity in experiment [2] and in experiment [3] were 4.4% and 2.6%, respectively.

Consider `c1ccc2c(Cc3c[nH]c4ccccc34)c[nH]c2c1` [ARUNDINE], for which, in experiment [4], the fold induction at 3 µM was 1.9. Besides, the Activity in [5] was 34.3%; in [10], 6.8%; in [11] it was 2.7%. Besides, the “fold change (FC)” value in experiment [6] stood at 2.1; in experiment [7] it was 2. Also, the outcome in experiment [8] and in experiment [9] was Active.
